According to ChEMBL document CHEMBL5244281, “Tackling multidrug-resistant Staphylococcus aureus by natural products and their analogues acting as NorA efflux pump inhibitors” (Bioorg Med Chem, 2023):
Converted amounts (≈) assume the structure as drawn.

Assays:
[1] = test system: Escherichia coli; assay: Antibacterial activity against Escherichia coli ATCC 25922 assessed as bacterial growth inhibition incubated for 24 hrs by resazurin based microdilution test; assay type: functional
[2] = test system: Staphylococcus aureus; assay: Antibacterial activity against Staphylococcus aureus ATCC 25923 assessed as bacterial growth inhibition incubated for 24 hrs by resazurin based microdilution test; assay type: functional
[3] = test system: Staphylococcus aureus; assay: Antibacterial activity against norfloxacin resistant Staphylococcus aureus 1199B harboring NorA efflux pump gene assessed as bacterial growth inhibition incubated for 24 hrs by resazurin based microdilution test; assay type: functional
[4] = test system: Staphylococcus aureus; assay: Synergistic antibacterial activity against Staphylococcus aureus 1199B overexpressing NorA gene assessed as fractional inhibitory concentration index at 128 ug/ml in presence of norfloxacin; assay type: functional; conditions: dose 128 µg/ml
[5] = test system: Staphylococcus aureus; assay: Synergistic antibacterial activity against Staphylococcus aureus 1199B overexpressing NorA efflux pump assessed as fractional inhibitory concentration index in presence of norfloxacin by chequer board assay; assay type: functional
[6] = test system: Proteus mirabilis; assay: Antimicrobial activity against Proteus mirabilis assessed as bacterial growth inhibition incubated for 18 to 24 hrs by broth microdilution method; assay type: functional; conditions: time 18-24 hrs
[7] = test system: Vibrio cholerae; assay: Antimicrobial activity against Vibrio cholerae assessed as bacterial growth inhibition incubated for 18 to 24 hrs by broth microdilution method; assay type: functional; conditions: time 18-24 hrs
[8] = test system: Staphylococcus aureus; assay: Antimicrobial activity against Staphylococcus aureus assessed as bacterial growth inhibition incubated for 18 to 24 hrs by broth microdilution method; assay type: functional; conditions: time 18-24 hrs
[9] = test system: Klebsiella pneumoniae; assay: Antimicrobial activity against Klebsiella pneumoniae assessed as bacterial growth inhibition incubated for 18 to 24 hrs by broth microdilution method; assay type: functional; conditions: time 18-24 hrs
[10] = test system: Enterococcus faecalis; assay: Antimicrobial activity against Enterococcus faecalis assessed as bacterial growth inhibition incubated for 18 to 24 hrs by broth microdilution method; assay type: functional; conditions: time 18-24 hrs
[11] = test system: Proteus vulgaris; assay: Antimicrobial activity against Proteus vulgaris assessed as bacterial growth inhibition incubated for 18 to 24 hrs by broth microdilution method; assay type: functional; conditions: time 18-24 hrs
[12] = test system: Pseudomonas aeruginosa; assay: Antimicrobial activity against Pseudomonas aeruginosa assessed as bacterial growth inhibition incubated for 18 to 24 hrs by broth microdilution method; assay type: functional; conditions: time 18-24 hrs
[13] = test system: Escherichia coli; assay: Antimicrobial activity against Escherichia coli assessed as bacterial growth inhibition incubated for 18 to 24 hrs by broth microdilution method; assay type: functional; conditions: time 18-24 hrs
[14] = test system: Bacillus subtilis; assay: Antimicrobial activity against Bacillus subtilis assessed as bacterial growth inhibition incubated for 18 to 24 hrs by broth microdilution method; assay type: functional; conditions: time 18-24 hrs
[15] = test system: Shigella dysenteriae; assay: Antimicrobial activity against Shigella dysenteriae assessed as bacterial growth inhibition incubated for 18 to 24 hrs by broth microdilution method; assay type: functional; conditions: time 18-24 hrs
[16] = test system: Staphylococcus aureus; assay: Potentiation of tetracycline-induced inhibition of TetK efflux pump in Staphylococcus aureus IS-58 overexpressing TetK efflux pump assessed as reduction in tetracycline MIC at 1/8 times of MIC incubated for 24 hrs by resazurin based assay (Rvb=192 ug/ml)
[17] = test system: Staphylococcus aureus; assay: Antibacterial activity against norfloxacin resistant Staphylococcus aureus 1199B harboring NorA efflux pump assessed as bacterial growth inhibition incubated for 24 hrs by broth microdilution method; assay type: functional
[18] = target: T1, Quinolone resistance protein NorA (Staphylococcus aureus) (UniProt P0A0J7); conditions: 1199B
T1 sequence (whole entry): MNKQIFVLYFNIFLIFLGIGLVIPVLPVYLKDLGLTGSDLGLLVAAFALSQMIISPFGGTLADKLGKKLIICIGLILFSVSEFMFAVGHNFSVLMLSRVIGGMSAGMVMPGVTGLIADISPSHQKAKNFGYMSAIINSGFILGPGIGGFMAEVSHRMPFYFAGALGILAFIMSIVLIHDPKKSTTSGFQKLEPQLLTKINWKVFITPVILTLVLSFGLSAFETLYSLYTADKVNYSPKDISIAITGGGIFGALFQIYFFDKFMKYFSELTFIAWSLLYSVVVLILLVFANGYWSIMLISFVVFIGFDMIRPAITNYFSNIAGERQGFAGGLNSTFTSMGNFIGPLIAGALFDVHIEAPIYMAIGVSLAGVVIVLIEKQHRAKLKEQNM

[19] = test system: Staphylococcus aureus; assay: Antibacterial activity against Staphylococcus aureus IS-58 harboring TetK efflux pump protein assessed as bacterial growth inhibition incubated for 24 hrs by broth microdilution method; assay type: functional
[20] = test system: Staphylococcus aureus; assay: Antibacterial activity against kanamycin-resistant Staphylococcus aureus APH3' assessed as bacterial growth inhibition incubated for 18 hrs by broth microdilution method; assay type: functional
[21] = test system: Staphylococcus aureus; assay: Antibacterial activity against Staphylococcus aureus ST239 assessed as bacterial growth inhibition incubated for 18 hrs by broth microdilution method; assay type: functional
[22] = test system: Staphylococcus aureus; assay: Antibacterial activity against gentamicin-resistant Staphylococcus aureus APH2" AAC6 assessed as bacterial growth inhibition incubated for 18 hrs by broth microdilution method; assay type: functional
[23] = test system: Staphylococcus aureus; assay: Antibacterial activity against fusidic acid-resistant Staphylococcus aureus APH4' assessed as bacterial growth inhibition incubated for 18 hrs by broth microdilution method; assay type: functional
[24] = test system: Staphylococcus aureus; assay: Antibacterial activity against methicillin-resistant Staphylococcus aureus 1199B overexpressing NorA efflux pump assessed as bacterial growth inhibition incubated for 18 hrs by broth microdilution method; assay type: functional
[25] = test system: Staphylococcus aureus; assay: Antibacterial activity against methicillin-resistant Staphylococcus aureus RN4220/pUL5054 overexpressing MsrA efflux pump assessed as bacterial growth inhibition incubated for 18 hrs by broth microdilution method; assay type: functional
[26] = test system: Staphylococcus aureus; assay: Antibacterial activity against methicillin-resistant Staphylococcus aureus clinical isolate assessed as bacterial growth inhibition by broth dilution method; assay type: functional
[27] = test system: Staphylococcus aureus; assay: Synergistic antibacterial activity against methicillin-resistant Staphylococcus aureus clinical isolate assessed as fractional inhibitory concentration index in presence of ciprofloxacin by checkerboard assay; assay type: functional
[28] = target: T1, Quinolone resistance protein NorA (Staphylococcus aureus); assay: Inhibition of NorA efflux pump in methicillin-resistant Staphylococcus aureus clinical isolate assessed as EtBr MIC using EtBr as substrate at 64 ug/ml and measured for 20 mins by spectrofluorimetric analysis (Rvb=[…] ug/ml); conditions: dose 64.0 µg/ml
[29] = target: T1, Quinolone resistance protein NorA (Staphylococcus aureus); assay: Inhibition of NorA efflux pump in methicillin-resistant Staphylococcus aureus clinical isolate assessed as decrease in ciprofloxacin MIC and measured for 20 mins in presence of ciprofloxacin by spectrofluorimetric analysis (Rvb=128 ug/ml)
[30] = target: T1, Quinolone resistance protein NorA (Staphylococcus aureus); assay: Inhibition of NorA efflux pump in Staphylococcus aureus 1199B overexpressing NorA efflux pump assessed as decrease in ciprofloxacin MIC and […] (Rvb=8 ug/ml)
[31] = test system: Staphylococcus aureus; assay: Antibacterial activity against Staphylococcus aureus 10 assessed as bacterial growth inhibition incubated for 24 hrs by broth microdilution method; assay type: functional
[32] = test system: Escherichia coli; assay: Antibacterial activity against Escherichia coli 06 assessed as bacterial growth inhibition incubated for 24 hrs by broth microdilution method; assay type: functional
[33] = test system: Pseudomonas aeruginosa; assay: Antibacterial activity against Pseudomonas aeruginosa 24 assessed as bacterial growth inhibition incubated for 24 hrs by broth microdilution method; assay type: functional

For Oc1ccc2c(c1)O[C@H](c1ccc(O)c(O)c1)[C@@H](O)C2 [FISETINIDOL], the MIC [1] was no less than 1020 µg/mL, the MIC [2] was no less than 1020 µg/mL and the MIC [3] was no less than 1020 µg/mL.

COc1cc(-c2oc3cc(OC)c(OC)c(O)c3c(=O)c2OC)ccc1O [CHRYSOSPLENOL B] was tested, and the “fractional inhibitory concentration index (FICI)” value [4] was 0.375.

C=C(C)[C@H](CC=C(C)C)Cc1c(O)cc(O)c2c1O[C@H](c1ccc(O)cc1O)CC2=O [SOPHORAFLAVANONE G] was tested, and the “fractional inhibitory concentration index (FICI)” value [5] was 0.188.

For COc1cc(O)c2c(c1)O[C@H](c1ccccc1)CC2=O [PINOSTROBIN], the MIC [6] was 32 µg/mL (≈ 118 µM), the MIC [7] was 24 µg/mL (≈ 88.8 µM) and the MIC [8] was 64 µg/mL (≈ 237 µM). The MIC [9] was 18 µg/mL (≈ 66.6 µM), the MIC [10] was 12 µg/mL (≈ 44.4 µM) and the MIC [11] was 18 µg/mL (≈ 66.6 µM). It also gave an MIC [12] of 32 µg/mL (≈ 118 µM), an MIC [13] of 12 µg/mL (≈ 44.4 µM) and an MIC [14] of 12 µg/mL (≈ 44.4 µM). The MIC [15] was 12 µg/mL (≈ 44.4 µM).

CC1=CC[C@@H]([C@@](C)(O)CCCC(C)C)CC1 showed an MIC [16] of 128 µg/mL, an MIC [17] of no less than 1020 µg/mL and an MIC [18] of 32 µg/mL (≈ 143 µM). The MIC [19] was no less than 1020 µg/mL.

O=c1cc(-c2ccccc2)oc2cc(O)c(O)c(O)c12 [BAICALEIN] showed an MIC [20] of 64 µg/mL (≈ 237 µM), an MIC [21] of 128 µg/mL (≈ 474 µM) and an MIC [22] of 128 µg/mL (≈ 474 µM). It also gave an MIC [23] of 128 µg/mL (≈ 474 µM), an MIC [24] of 128 µg/mL (≈ 474 µM) and an MIC [25] of 64 µg/mL (≈ 237 µM).

For COC(=O)/C=C/c1ccc(OCC(=O)Nc2ccc(C)cc2)c(OC)c1, the MIC [26] was greater than 125 µg/mL, the “fractional inhibitory concentration index (FICI)” value [27] was 0.75 and the MIC [28] was 4 µg/mL. It also gave an MIC [29] of 64 µg/mL and an MIC [30] of 2 µg/mL.

With C=C1CC/C=C(\C)CC[C@@H]2[C@@H]1CC2(C)C [BETA-CARYOPHYLLENE] the MIC [31] was 32 µg/mL (≈ 157 µM), the MIC [32] was no less than 1020 µg/mL and the MIC [33] was no less than 1020 µg/mL.
